Laboratory results: US20230089524A1, “COMPOSITIONS FOR USE IN THE INHIBITION OF DIHYDROOROTATE DEHYDROGENASE” (OHIO STATE INNOVATION FOUNDATION, priority 2019, published 2023)
Read-outs that look alike come from different tables or passages of the source.

Tests used:
h-DHODH = target: T1, h-DHODH (Homo sapiens, UniProt Q02127); experiment: DHODH enzymatic assay (DCIP reduction at 600 nm); type: biochemical; settings: recombinant human enzyme, 25° C.
T1 construct: made in house
Description: DHODH Enzymatic Assay: DHODH activity was determined at 25° C. following the reduction of 2,6-dichloroindophenol sodium salt (DCIP) at 600 nm (ε=18 800 M^−1 cm^−1) on a spectrophotometer. The reaction medium used contained 50 mM Tris-HCl, pH 8.0, 0.1% Triton X-100, 0.1 mM LDHO, 0.025 mM CoQ1, and 0.06 mM DCIP. The reaction was started by addition of the enzyme. The inhibitory potency of the compounds was evaluated by measuring the initial velocity of the reaction either in the absence or in the presence of the compounds at the indicated concentrations. The DHODH enzyme used was the recombinant human enzyme prepared as previously described (Hélène Munier-Lehmann, et al., J. Med. Chem. 2015, 58:860-877).
(§1) Biological Activity. Cell proliferation assays were carried out using the MTS assay described herein using an AML cell line (i.e., OCI-AM L3) as described above. The assays were carried out in a blinded fashion. Assays were also carried out to assess the effect of representative disclosed compounds on DHODH activity.

OCI-AML3 cell line = experiment: MTS assay for cell growth/viability; type: cell-based; settings: Homo sapiens
Description: MTS assay for cell growth/viability: Mitochondrial activity was measured to determine cell proliferation using an MTS assay (tetrazolium dye 3-[4,5-dimethylthiazol-2-yl]-2,5-diphenyl-tetrazolium bromide). Metabolically active cells convert MTS tetrazolium salt into a purple formazan product that is soluble in tissue culture medium. The amount of formazan measured at 490 nm absorbance is proportional to the number of proliferating cells. MTS assays in AML cell lines were carried out with 20K cells plated per well in 96-well plates with Cpd3 or brequinar in a dose series ranging from 0.0001 to 10 μM. Triplicate wells were set up for each condition. At 96 hours, the MTS reagent was added and after approximately 4 hours the plates were read in a spectrophotometer.
as §1

[1] = OCI-AML-3, 96 hours, read-out: OCI-AML3 cell line IC50
[2] = OCI-AML-3, read-out: growth arrest in the OCI-AML3 cell line, IC50

T1 sequence (Q02127 whole entry): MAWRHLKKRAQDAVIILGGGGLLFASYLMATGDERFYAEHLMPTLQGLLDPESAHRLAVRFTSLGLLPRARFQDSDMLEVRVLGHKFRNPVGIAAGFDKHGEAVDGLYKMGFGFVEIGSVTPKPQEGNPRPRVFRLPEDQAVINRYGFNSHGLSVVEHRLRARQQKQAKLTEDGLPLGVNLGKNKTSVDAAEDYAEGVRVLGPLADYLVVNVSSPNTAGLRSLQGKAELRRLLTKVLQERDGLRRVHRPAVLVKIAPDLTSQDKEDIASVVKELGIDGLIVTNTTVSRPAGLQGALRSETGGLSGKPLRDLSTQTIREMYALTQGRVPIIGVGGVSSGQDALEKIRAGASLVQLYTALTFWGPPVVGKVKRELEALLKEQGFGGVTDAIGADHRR

**Q.** For CCOc1ccc(-c2ccc(-c3cc(C(=O)O)c4cc(F)ccc4n3)s2)cc1 [Cpd2, 2-(5-(4-ethoxyphenyl)thiophen-2-yl)-6-fluoroquinoline-4-carboxylic acid], which IC50 (h-DHODH) is on record?
**A.** 212 nM

**Q.** And the IC50 (OCI-AML3 cell line; [1])?
**A.** 0.79 µM

**Q.** And the IC50 (OCI-AML3 cell line; [2])?
**A.** 0.41 to 0.79 µM

**Q.** What does the source list for CCOc1ccc(-c2csc(-c3cc(C(=O)O)c4cc(F)ccc4n3)n2)cc1 [Cpd5, 2-(4-(4-ethoxyphenyl)thiazol-2-yl)-6-fluoroquinoline-4-carboxylic acid]?
**A.** IC50 (h-DHODH): 524 nM; IC50 (OCI-AML3 cell line; [1]): 7.41 µM

**Q.** How did the IC50 (h-DHODH) turn out when CCOc1cccc(-c2csc(-c3cc(C(=O)O)c4cc(F)ccc4n3)c2)c1 [Cpd3, 2-(4-(3-ethoxyphenyl)thiophen-2-yl)-6-fluoroquinoline-4-carboxylic acid] was run?
**A.** 200 nM

**Q.** What about the IC50 (OCI-AML3 cell line; [1]) of the same compound?
**A.** 10.9 µM

**Q.** CCOc1ccc(-c2cnc(-c3cc(C(=O)O)c4cc(F)ccc4n3)s2)cc1 [Cpd6, 2-(5-(4-ethoxyphenyl)thiazol-2-yl)-6-fluoroquinoline-4-carboxylic acid] was tested. Which IC50 (h-DHODH) did it give?
**A.** 13900 nM

**Q.** What about the IC50 (OCI-AML3 cell line; [1]) of the same compound?
**A.** > 10 µM

**Q.** How did the IC50 (h-DHODH) turn out when CCOc1ccc(-c2nc(-c3cc(C(=O)O)c4cc(F)ccc4n3)cs2)cc1 [Cpd7] was run?
**A.** 85 nM

**Q.** What about the IC50 (OCI-AML3 cell line; [1]) of the same compound?
**A.** 4.92 µM

**Q.** For CCOc1cccc(-c2ccc(-c3cc(C(=O)O)c4cc(F)ccc4n3)s2)c1 [Cpd4, 2-(5-(3-ethoxyphenyl)thiophen-2-yl)-6-fluoroquinoline-4-carboxylic acid], which IC50 (h-DHODH) is on record?
**A.** 223 nM

**Q.** And the IC50 (OCI-AML3 cell line; [1])?
**A.** 3.35 µM

**Q.** Which results are given for CCOc1ccc(-c2csc(-c3cc(C(=O)O)c4cc(F)ccc4n3)c2)cc1 [Cpd1, 2-(4-(4-ethoxyphenyl)thiophen-2-yl)-6-fluoroquinoline-4-carboxylic acid]?
**A.** IC50 (h-DHODH): 58 nM; IC50 (OCI-AML3 cell line; [1]): 0.413 µM; IC50 (OCI-AML3 cell line; [2]): 0.41 to 0.79 µM

**Q.** Which results are given for CCOc1ccc(-c2ncc(-c3cc(C(=O)O)c4cc(F)ccc4n3)s2)cc1 [Cpd8, 2-(2-(4-ethoxyphenyl)thiazol-5-yl)-6-fluoroquinoline-4-carboxylic acid]?
**A.** IC50 (h-DHODH): 472 nM; IC50 (OCI-AML3 cell line; [1]): > 10 µM
